Like-named read-outs stand apart in the source and are kept apart here.
Assays:
kochia = experiment: Test C pre-/postemergence herbicide test; type: in vivo, Kochia scoparia
How it was run: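 Test compounds, formulated in a surfactant-containing non-phytotoxic solvent blend, are applied to seeded loam/sand soil (preemergence) and to young plants at the 1- to 4-leaf stage in peat-based medium (postemergence). Plants stay 13 to 15 days under greenhouse conditions, then are scored visually relative to controls, 0 = no effect, 100 = complete control.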

barnyardgrass = experiment: Test C flooded paddy test; type: in vivo, Echinochloa crus-galli; details: Flood
How it was run: (§1)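 Visual ratings from 0, no effect, to 100, complete control, were made against untreated controls after 13–15 greenhouse days. Compounds had gone straight into paddy water 3 cm above the soil, kept at that depth, on 2-leaf-stage plants.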

chickweed = experiment: Test C postemergence herbicide test; type: in vivo, Stellaria media
How it was run: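 Response is scored visually on a 0–100 scale (100 = complete control) relative to untreated controls, 13 to 15 days after treatment. Plants were sprayed postemergence at the 1- to 4-leaf stage (2 to 18 cm tall) and kept in a greenhouse.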

velvetleaf = experiment: Test A pre-/postemergence herbicide test; type: in vivo, Abutilon theophrasti; details: for pest or weed control at 1000 g/ha: 1000 g ai/ha
How it was run: (§2)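 Planted in loam–sand blend; treated the same day preemergence by directed soil spray, while separately grown plants at one- to two-leaf stage got postemergence spray. Compared visually with untreated controls after approximately 10 days; 100 means complete control.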

ducksalad = experiment: Test C flooded paddy test; type: in vivo, Heteranthera limosa; details: Flood
How it was run: as §1

morningglory = experiment: Test A pre-/postemergence herbicide test; type: in vivo, Ipomoea spp.; details: for pest or weed control at 1000 g/ha: 1000 g ai/ha
How it was run: as §2

sedge, umbrella = experiment: Test C flooded paddy test; type: in vivo, Cyperus difformis; details: Flood
How it was run: as §1

[1] = Postemergence, 31 g ai/ha, scale 0 (no effect) to 100 (complete control)
[2] = Postemergence, 62 g ai/ha, scale 0 to 100 (0 no effect, 100 complete control)
[3] = Postemergence, 125 g ai/ha, scale 0 to 100 (0 no effect, 100 complete control)
[4] = Postemergence, 250 g ai/ha, scale 0 to 100 (0 no effect, 100 complete control)
[5] = 31 g ai/ha, scale of 0 to 100 where 0 is no effect and 100 is complete control, 13 to 15 days
[6] = 62 g ai/ha, scale of 0 to 100 where 0 is no effect and 100 is complete control, 13 to 15 days
[7] = 125 g ai/ha, scale of 0 to 100 where 0 is no effect and 100 is complete control, 13 to 15 days
[8] = 31 g ai/ha, scale 0 (no effect) to 100 (complete control)
[9] = 62 g ai/ha, scale 0 to 100 (0 no effect, 100 complete control)
[10] = 125 g ai/ha, scale 0 to 100 (0 no effect, 100 complete control)
[11] = 250 g ai/ha, scale 0 to 100 (0 no effect, 100 complete control)
[12] = Preemergence, 125 g ai/ha, visual rating on 0 to 100 scale (0 no effect, 100 complete control)
[13] = Preemergence, 62 g ai/ha, scale 0 to 100
[14] = Preemergence, 125 g ai/ha, scale 0 to 100 (0 no effect, 100 complete control)
[15] = Postemergence, 125 g ai/ha, 0 to 100 scale, 0 no effect, 100 complete control
[16] = Postemergence, 500 g ai/ha, 0 to 100 scale (0 no effect, 100 complete control)
[17] = preemergence, 500 g ai/ha, 0 to 100 scale

Row | Compound | Plant response rating, Kochia (kochia; [1]) | Plant response rating, Kochia (kochia; [2]) | Plant response rating, Kochia (kochia; [3]) | Plant response rating, Kochia (kochia; [4]) | Plant response rating, Barnyardgrass (barnyardgrass; [5]) | Plant response rating, Barnyardgrass (barnyardgrass; [6]) | Plant response rating, Barnyardgrass (barnyardgrass; [7]) | Plant response rating, Barnyardgrass (barnyardgrass; 250 g ai/ha, scale 0 to 100) | Plant response rating, Chickweed (chickweed; [8]) | Plant response rating, Chickweed (chickweed; [9]) | Plant response rating, Chickweed (chickweed; [10]) | Plant response rating, Chickweed (chickweed; [11]) | Plant response rating, Ducksalad (ducksalad; [5]) | Plant response rating, Ducksalad (ducksalad; [6]) | Plant response rating, Ducksalad (ducksalad; [7]) | Plant response rating, Ducksalad (ducksalad; 250 g ai/ha, scale 0 to 100) | Plant response rating, Sedge, Umbrella (sedge, umbrella; [5]) | Plant response rating, Sedge, Umbrella (sedge, umbrella; [6]) | Plant response rating, Sedge, Umbrella (sedge, umbrella; [7]) | Plant response rating, Sedge, Umbrella (sedge, umbrella; 250 g ai/ha, scale 0 to 100) | also measured
1 | O=C1NCC(c2ccc(C(F)(F)F)cc2)C1C(=O)Nc1cccc(F)c1F (centres unmarked) [Compound 80, N-(2,3-difluorophenyl)-2-oxo-4-[4-(trifluoromethyl)phenyl]-3-pyrrolidinecarboxamide] | 30 | 55 | 65 | 65 | 0 | 0 | 0 | 20 | 70 | 85 | 90 | 90 | 70 | 70 | 100 | 100 | 35 | 35 | 55 | 65 | pest or weed control at 125 g/ha (velvetleaf; Abutilon theophrasti, post-emergence, 240 h, Postemergence, 125 g ai/ha, 0 to 100 scale, 0 no effect, 100 complete control, read-out: Plant response rating, Velvetleaf): 10%; pest or weed control at 500 g/ha (velvetleaf; Abutilon theophrasti, post-emergence, 240 h, Postemergence, 500 g ai/ha, 0 to 100 scale (0 no effect, 100 complete control), read-out: Plant response rating, Velvetleaf): 60%; pest or weed control at 500 g/ha (velvetleaf; Abutilon theophrasti, pre-emergence, 240 h, preemergence, 500 g ai/ha, 0 to 100 scale, read-out: Plant response rating, Velvetleaf): 30%; Velvetleaf plant response rating (velvetleaf; [12]): 0; pest or weed control at 125 g/ha (morningglory; Ipomoea, post-emergence, 240 h, Postemergence, 125 g ai/ha, 0 to 100 scale, 0 no effect, 100 complete control, read-out: Plant response rating, Morningglory): 0%; pest or weed control at 500 g/ha (morningglory; Ipomoea, post-emergence, 240 h, Postemergence, 500 g ai/ha, 0 to 100 scale (0 no effect, 100 complete control), read-out: Plant response rating, Morningglory): 0%; pest or weed control at 500 g/ha (morningglory; Ipomoea, pre-emergence, 240 h, preemergence, 500 g ai/ha, 0 to 100 scale, read-out: Plant response rating, Morningglory): 0%; Morningglory plant response rating (morningglory; [12]): 0
2 | O=C1NCC(c2ccc(F)c(F)c2)C1C(=O)Nc1cccc(F)c1F (centres unmarked) [Compound 17, N-(2,3-difluorophenyl)-4-(3,4-difluorophenyl)-2-oxo-3-pyrrolidinecarboxamide] | 0 | 0 | 0 | 5 | 0 | 0 | 20 | 25 | 0 | 0 | 0 | 10 | 40 | 80 | 100 | 100 | 0 | 0 | 0 | 40 | Plant response rating, Kochia (kochia; [13]): 50; Plant response rating, Kochia (kochia; [14]): 60; pest or weed control at 1000 g/ha (velvetleaf; Abutilon theophrasti, post-emergence, 240 h, Postemergence, 0 to 100 scale (0 no effect, 100 complete control), read-out: Plant response rating, Velvetleaf): 50%; pest or weed control at 1000 g/ha (velvetleaf; Abutilon theophrasti, pre-emergence, 240 h, Preemergence, visual rating on 0 to 100 scale (0 no effect, 100 complete control), approx. 10 days, read-out: Plant response rating, Velvetleaf): 40%; pest or weed control at 1000 g/ha (morningglory; Ipomoea, post-emergence, 240 h, Postemergence, 0 to 100 scale (0 no effect, 100 complete control), read-out: Plant response rating, Morningglory): 0%; pest or weed control at 1000 g/ha (morningglory; Ipomoea, pre-emergence, 240 h, Preemergence, visual rating on 0 to 100 scale (0 no effect, 100 complete control), approx. 10 days, read-out: Plant response rating, Morningglory): 30%
3 | O=C1NCC(c2ccc(Cl)c(F)c2)C1C(=O)Nc1cccc(F)c1F (centres unmarked) [Compound 52] | 30 | 35 | 40 | 50 | 0 | 0 | 0 | 0 | – | 25 | 45 | 60 | 40 | 40 | 75 | 95 | 0 | 40 | 50 | 75 | Plant response rating, Kochia (kochia; [13]): 10; Plant response rating, Kochia (kochia; [14]): 15; Plant response rating, Velvetleaf (velvetleaf; [15]): 0; Plant response rating, Velvetleaf (velvetleaf; [16]): 0; Velvetleaf plant response rating (velvetleaf; [12]): 0; Plant response rating, Velvetleaf (velvetleaf; [17]): 20; Plant response rating, Morningglory (morningglory; [15]): 0; Plant response rating, Morningglory (morningglory; [16]): 0; Morningglory plant response rating (morningglory; [12]): 0; Plant response rating, Morningglory (morningglory; [17]): 0

— US10294202B2, “Pyrrolidinones as herbicides” (FMC Corporation, priority 2013, dated 2019)
